Usually Ki stands for the equilibrium dissociation constant of an inhibitor or competing ligand from its target. As usually defined, the IC50 is the point on the concentration scale where inhibition reaches its midpoint. The low end stands for greater potency, the high end for weaker potency.

Experiment [1] has as its target TrufOBP4. Put plainly: Binding of fluorescent reporter 1-NPN (titration, Scatchard plot). The settings on record: 2 μM protein titrated with 2 to 20 μM 1-NPN; read-out: K1-NPN (dissociation constant of 1-NPN). Also noted: species or system Tirathaba rufivena. The method, then:
(§1) The binding ability of purified recombinant OBPs was evaluated with an F-7000 fluorescence spectrometer (Hitachi, Tokyo, Japan). The fluorescence spectra were recorded between 360 and 650 nm. N-Phenyl-1-naphthylamine (1-NPN) was selected as the fluorescent reporter and dissolved in chromatographic methanol at a concentration of 1 mM. The purified TrufOBP4 was dissolved in 50 mM Tris-HCl (pH 7.4) at a final concentration of 2 μM. The data for the 1-NPN-TrufOBP4 complex formation were obtained by titration of 2 μM protein with increasing concentrations (2 to 20 μM) of 1-NPN. The dissociation constant of 1-NPN (K1-NPN) was calculated using Prism 8 (GraphPad Software, San Diego, USA). To evaluate the binding ability of TrufOBP4 with volatiles, 1-NPN was replaced with different odor compounds from the TrufOBP4/1-NPN complex. The odor ligands were dissolved in chromatographic methanol at a concentration of 1 mM and added as aliquots to the protein solution. The spectral results were obtained, and the dissociation constants of the competitors were calculated with the formula: Ki = IC50/(1 + [1-NPN]/K1-NPN), where 1-NPN represents the free concentration of 1-NPN, and IC50 represents the ligand concentration displacing 50% of the fluorescent reporter.

Experiment [2] has as its target TrufOBP4. The experiment is described as follows: Fluorescence competitive binding assay (displacement of 1-NPN). Also noted: species or system Tirathaba rufivena. The settings on record: 2 μM protein, 50 mM Tris-HCl pH 7.4; for Ki: Ki = IC50/(1 + [1-NPN]/K1-NPN); for IC50: ligand concentration displacing 50% of 1-NPN. How it is done:
as §1

Experiment [3] deals with AipsGOBP2. Also noted: method as in PMID 29778539, PMID 29543772. The settings on record: cited from earlier work.
The test system of experiment [4] is Rhyzopertha dominica. The arrangement: method as in earlier work. The note with it: cited from earlier work.
Experiment [5] has as its system EoblGOBP2. The arrangement: method as in PMID 29778539, PMID 29543772. The note with it: cited from earlier work.
In experiment [6] the test system is Tribolium castaneum. Also noted: method as in earlier work. The note with it: cited from earlier work.
For experiment [7], the system named is Holotrichia oblita. Also noted: method as in earlier work. The settings on record: cited from earlier work.
The subject of experiment [8] is Hyphantria cunea. The arrangement: method as in PMID 32547409. The note with it: stimulation with the compound; cited from earlier work.
Experiment [9] relates to PregOBP56a. Also noted: method as in PMID 23326317. The settings on record: cited from earlier work.
Experiment [10] has as its system LsatOBP1. The arrangement: method as in PMID 11274212. The note with it: cited from earlier work.
The test system of experiment [11] is MbraPBP1. Also noted: method as in PMID 11274212. The settings on record: cited from earlier work.

Molecules are shown by their SMILES. Where only a bound is given, the exact number is not on record here.

On to `c1ccc(Nc2cccc3ccccc23)cc1` [1-NPN, N-Phenyl-1-naphthylamine], for which the Kd in experiment [1] is 6.79 µM.
As for `CCCCC(CC)CO` (stereo not drawn) [2-Ethylhexanol], in [2], the Ki turned out to be 21 µM and the half-inhibitory concentration (IC50) was 24.1 µM.
`CC1=CCC2C(C1)C2(C)C` (stereo not drawn) [3-Carene]: in [2], the Ki amounted to 19.5 µM and the IC50 was 22.4 µM.
With `CCC=CCCOC(C)=O` [3-Hexenyl acetate], in experiment [2], the Ki is 40.6 µM and the IC50 came to 46.6 µM.
Taken in the same sequence, the figures for `CCC(C)C(=O)OCCC(C)C` (stereo not drawn) [3-Methylbutyl 2-methylbutanoate] were 45.8 µM and greater than 50 µM.
`C=C(C)[C@H]1CC=C(C)CC1` [(R)-(+)-limonene]: in [2], the inhibition constant (Ki) was 22.1 µM and the IC50 stood at 25.3 µM.
Taken in the same sequence, the figures for `C=C(C)[C@@H]1CC=C(C)CC1` [(S)-(−)-Limonene] were 29.1 µM and 33.4 µM.
Taken in the same sequence, the figures for `C=C(C)[C@H]1CC=C(C)CC1` [Cinene] were greater than 50 µM and greater than 50 µM.
Taken in the same sequence, the figures for `CC12CCC(CC1)C(C)(C)O2` [Cineole] were greater than 50 µM and greater than 50 µM.
With `CCCCOC(=O)c1ccccc1C(=O)OCCCC` [Dibutyl phthalate], the binding affinity entry in experiment [3] and in [5] was “outstanding binding affinity” throughout. Further, the inhibition constant (Ki) in experiment [2] is 4.61 µM. The compound also displayed an IC50 in experiment [2] of 5.29 µM. In addition, the effect on behavior result is on record as “repellent” in experiment [4], “repellent” in [6] and “attractive effect” in [7]. For the same compound, in experiment [8], the mating rates result is “significantly increased”.
Regarding `CCCCCCOC(C)=O` [Hexyl acetate], in [2], the inhibition constant Ki was greater than 50 µM and the IC50 is greater than 50 µM.
Regarding `CC(=O)OCCC(C)C` [Isoanyl acetate], in experiment [2], the Ki stood at 21 µM and the 50% inhibitory concentration (IC50) is 24.1 µM.
Consider `C=CC(C)(O)CCC=C(C)C` (stereo not drawn) [Linalol], for which, in [2], the Ki was greater than 50 µM and the IC50 is greater than 50 µM.
Regarding `COC(=O)c1ccccc1O` [Methyl salicylate], in experiment [2], the Ki is greater than 50 µM and the IC50 was greater than 50 µM.
With `C=CC(=C)CCC=C(C)C` [Myrcene], in experiment [2], the Ki is 17.3 µM and the IC50 stood at 19.8 µM.
Turning to `CCCCCCCCCCCCCC(=O)O` [Myristic acid], in experiment [2], the Ki was 3.52 µM and the IC50 came out at 4.04 µM.
Taken in the same sequence, the figures for `CCCCC(CC)COC(=O)C=Cc1ccc(OC)cc1` (stereo not drawn) [Octyl methoxycinnamate] were 1.16 µM and 1.33 µM.
Regarding `CCCCCCCCCCCCCCCC(=O)O` [Palmitic acid], in experiment [2], the Ki stood at 5.28 µM and the IC50 came out at 6.06 µM. In experiment [9], the binding affinity entry is listed as “high binding affinity”. In experiment [10], the binding entry was “bind well”. The binding entry in experiment [11] is recorded as “bind well”.
Consider `C=Cc1ccccc1` [Styrene], for which, in experiment [2], the Ki worked out at 36.2 µM and the IC50 stood at 41.5 µM.
Take `CCCCC/C=C\C/C=C\CCCCCCCC(=O)O` [linoleic]: the binding affinity entry in [9] was “high binding affinity”.
For `CCCCCCCC/C=C\CCCCCCCC(=O)O` [oleic], the binding affinity result in [9] was “high binding affinity”.
`CCCCCCCCCCCCCCCCCC(=O)O` [stearic]: the binding affinity result in experiment [9] is recorded as “high binding affinity”.
With `C=C1CCC2CC1C2(C)C` (stereo not drawn) [β-Pinene], in [2], the Ki came out at 29 µM and the IC50 came out at 33.3 µM.

Source of the values: article PMC8779631, “Binding Properties of Odorant-Binding Protein 4 of Tirathaba rufivena to Areca catechu Volatiles” (Plants, 2022).
